Source: ChEMBL document CHEMBL4004877, “Synthesis and biological evaluation of chalcone, dihydrochalcone, and 1,3-diarylpropane analogs as anti-inflammatory agents” (Bioorg Med Chem Lett, 2017)
≈ marks a conversion by molar mass, not a printed value. Calls of active or inactive are those of the source. No cut-off for these calls is given here.

Experiments:
RAW264.7 [1] = assay: Antiinflammatory activity in mouse RAW264.7 cells assessed as inhibition of LPS induced iNOS-dependent nitric oxide production at 1.25 ug/ml after 24 hrs by Griess assay relative to control; format: functional; conditions: RAW264.7, 24 h
RAW264.7 [2] = assay: Antiinflammatory activity in mouse RAW264.7 cells assessed as inhibition of LPS induced iNOS-dependent nitric oxide production at 2.5 ug/ml after 24 hrs by Griess assay relative to control; format: functional; conditions: RAW264.7, 24 h
RAW264.7 [3] = assay: Antiinflammatory activity in mouse RAW264.7 cells assessed as inhibition of LPS induced iNOS-dependent nitric oxide production at 5 ug/ml after 24 hrs by Griess assay relative to control; format: functional; conditions: RAW264.7, 24 h
RAW264.7 [4] = assay: Antiinflammatory activity in mouse RAW264.7 cells assessed as inhibition of LPS induced iNOS-dependent nitric oxide production at 10 ug/ml after 24 hrs by Griess assay relative to control; format: functional; conditions: RAW264.7, 24 h
RAW264.7 [5] = assay: Antiinflammatory activity in mouse RAW264.7 cells assessed as inhibition of LPS induced iNOS-dependent nitric oxide production after 24 hrs by Griess assay; format: functional, cell-based; conditions: RAW264.7, 24 h
[6] = Cytotoxicity against LPS-stimulated mouse RAW264.7 cells assessed as cell viability at 1.25 ug/ml after 24 hrs by MTT assay relative to control; format: cell-based; conditions: LPS-stimulated RAW264.7 cells, read-out: Activity
[7] = Cytotoxicity against LPS-stimulated mouse RAW264.7 cells assessed as cell viability at 2.5 ug/ml after 24 hrs by MTT assay relative to control; format: cell-based; conditions: LPS-stimulated RAW264.7 cells, read-out: Activity
[8] = Cytotoxicity against LPS-stimulated mouse RAW264.7 cells assessed as cell viability at 5 ug/ml after 24 hrs by MTT assay relative to control; format: cell-based; conditions: LPS-stimulated RAW264.7 cells, read-out: Activity
[9] = Cytotoxicity against LPS-stimulated mouse RAW264.7 cells assessed as cell viability at 10 ug/ml after 24 hrs by MTT assay relative to control; format: cell-based; conditions: LPS-stimulated RAW264.7 cells, read-out: Activity
RAW264.7 [10] = assay: Inhibition of iNOS expression in LPS-stimulated mouse RAW264.7 cells after 24 hrs by Western blot method; format: functional, cell-based
RAW264.7 [11] = assay: Inhibition of COX2 expression in LPS-stimulated mouse RAW264.7 cells at 2.5 to 10 ug/ml after 24 hrs by Western blot method; format: functional, cell-based
RAW264.7 [12] = assay: Inhibition of IkappaB-alpha expression in LPS-stimulated mouse RAW264.7 cells at 2.5 to 10 ug/ml preincubated for 1 hr followed by LPS challenge measured after 24 hrs by Western blot method; format: functional, cell-based
Mus musculus [13] = species on record: Mus musculus; assay: Inhibition of ERK phosphorylation in LPS-stimulated mouse RAW264.7 cells at 2.5 to 10 ug/ml preincubated for 1 hr followed by LPS challenge measured after 24 hrs by Western blot method
Mus musculus [14] = species on record: Mus musculus; assay: Inhibition of JNK phosphorylation in LPS-stimulated mouse RAW264.7 cells at 2.5 to 10 ug/ml preincubated for 1 hr followed by LPS challenge measured after 24 hrs by Western blot method
[15] = target: MAP kinase p38 (Mus musculus) (UniProt P47811+O08911+Q9WUI1+Q9Z1B7); assay: Inhibition of p38 phosphorylation in LPS-stimulated mouse RAW264.7 cells at 2.5 to 10 ug/ml preincubated for 1 hr followed by LPS challenge measured after 24 hrs by Western blot method
RAW264.7 [16] = assay: Effect on non-phosphorylated ERK in LPS-stimulated mouse RAW264.7 cells at 2.5 to 10 ug/ml preincubated for 1 hr followed by LPS challenge measured after 24 hrs by Western blot method; format: cell-based; conditions: raw264.7, 24 h
RAW264.7 [17] = assay: Effect on non-phosphorylated JNK in LPS-stimulated mouse RAW264.7 cells at 2.5 to 10 ug/ml preincubated for 1 hr followed by LPS challenge measured after 24 hrs by Western blot method; format: cell-based; conditions: raw264.7, 24 h
RAW264.7 [18] = assay: Effect on non-phosphorylated p38 in LPS-stimulated mouse RAW264.7 cells at 2.5 to 10 ug/ml preincubated for 1 hr followed by LPS challenge measured after 24 hrs by Western blot method; format: cell-based; conditions: raw264.7, 24 h

IC50 (RAW264.7 [5]): 1.97 µg/mL (≈ 6.52 µM)
inhibition (Mus musculus [13]): Active
inhibition (Mus musculus [14]): Active
inhibition [15]: Active
SMILES: COc1ccc(CCCc2ccc(OC)c(OC)c2)c(O)c1
inhibition at 1.25 µg/mL (RAW264.7 [1]): 29.6%
inhibition at 2.5 µg/mL (RAW264.7 [2]): 60.5%
inhibition at 5 µg/mL (RAW264.7 [3]): 69.2%
inhibition at 10 µg/mL (RAW264.7 [4]): 75.5%
viability at 24 h, 1.25 ug/ml [6]: 97.9%
viability at 24 h, 2.5 ug/ml [7]: 91.7%
viability at 24 h, 5 ug/ml [8]: 88.9%
viability at 24 h, 10 ug/ml [9]: 44.5%
inhibition (RAW264.7 [10]): Dose-dependent effect
inhibition (RAW264.7 [11]): Active
inhibition (RAW264.7 [12]): inactive
Activity (RAW264.7 [16]): Non-Toxic
Activity (RAW264.7 [17]): Non-Toxic
Activity (RAW264.7 [18]): Non-Toxic
